Measured values published in patent US8063012B2, “Neuroprotective peptide inhibitors of AP-1 signaling and uses therefor” (Phylogica Limited, priority 2006, dated 2011).
“Also recorded” adds a separate entry of the source. Non-standard residues stand in square brackets, D forms with d. Residues, ends and D or L forms follow the SMILES beside them. No end group written: not given here.

Columns and labels:
[1] = biological target: T1, interaction between JUN1 and JunZ (c-Jun dimerization) (Homo sapiens, UniProt P05412); test: Reverse-2-hybrid screening for inhibition of c-Jun dimerization in yeast; type: cell-based
T1 construct: Partial fragments of c-Jun i.e., JunZ (774-927 bp) and Jun1 (558-1002 bp); expressed in transfected cells; host or cells: Saccharomyces cerevisiae strain PRT480, mated with library strain PRT51
Text: The yeast two hybrid system described by Vidal.M., In: The Yeast Two Hybrid System (eds. P. Bartel and S. Fields), Oxford University Press, New York (1997), was modified to add another counter selectable marker (CYH2) and to allow flexible titration of stringency by adjustment of sugar concentrations in the screening media.
Partial fragments of c-Jun i.e., JunZ (774-927 bp) and Jun1 (558-1002 bp), were cloned into yeast two-hybrid vectors pDD (a kanamycin-resistant variant of pGilda bait vector) and pJFK (pYesTrp prey vector (Invitrogen) modified by replacing the TRP1 yeast selection gene with HIS5), respectively, before co-transforming into Saccharomyces cerevisiae strain PRT480 (MATα, his3, trp1, ura3, 4 LexA-LEU2, lys2::3 cIop-LYS2, CAN^R, CYH2^R, ade2::2 LexA-CYH2-ZEO, his5::2 LexA-URA3-G418) using a standard lithium-acetate based chemical transformation protocol.
The Phylomer™ peptide library was transformed into S. cerevisiae strain PRT51 (MATα, his3, trp1, ura3, 6 LexA-LEU2, lys2::3 cIop-LYS2, CYH2^R, ade2::G418-pZero-ade2, met15::Zeo-pBLUE-met15, his5::hygro), using a high-efficiency lithium acetate-based chemical transformation protocol, slightly modified to maximize the number of transformants.
Bait/prey plasmid containing PRT480 haploids (10^8 cells) were mated with the Phylomer™ library (10^7 c.f.u.) according to a liquid mating protocol for pretransformed libraries (Clontech, USA), and plated to HW^− minimal media (minimal media lacking histidine and tryptophan) to select for diploids. These plates were scraped after 2 days incubation at 30° C., and the cells were washed, resuspended 1:1 (v/v) in yeast freezing solution (65% v/v glycerol, 0.1M MgSO4, 25 mM Tris-Cl pH 8.0), and frozen at −80° C. in 1 ml aliquots.
To select peptides that block formation of an AP-1 complex requiring the interaction between JUN1 and JunZ, about 1.5×10^7 c.f.u Jun/Phylomer™ diploids were thawed and outgrown overnight in HW^− to achieve log-phase growth. The following day, 4×10^7 cells were plated onto counter-selective media: HWU^− (lacking histidine, tryptophan and uracil), containing supplements of 0.02% galactose (gal), 2% raffinose (raff), 0.2 μg/ml uracil, 0.06% (w/v) 5-Fluoroorotic acid (FOA), 5 μg/ml cycloheximide. These plates were incubated for 7 days, then colonies were picked to HWU^− 0.02% gal, 2% raff, and then to HWL^− (lacking histidine, tryptophan and leucine) 0.02% gal, 2% raff to confirm blocking phenotype.
These included transformants comprising the clones designated PYC19 [DNA sequence set forth in SEQ ID NO: 26; encoded amino acid sequence set forth in SEQ ID NO: 27 (with FLAG epitope) and 28 (without FLAG epitope)]; PYC35 [DNA sequence set forth in SEQ ID NO: 34; encoded amino acid sequence set forth in SEQ ID NO: 35 (with FLAG epitope) and 36 (without FLAG epitope)]; PYC36 [DNA sequence set forth in SEQ ID NO: 43; encoded amino acid sequence set forth in SEQ ID NO: 44 (with FLAG epitope) and 45 (without FLAG epitope)]; PYC38/39 [DNA sequence set forth in SEQ ID NO: 52; encoded amino acid sequence set forth in SEQ ID NO: 53 (with FLAG epitope) and 54 (without FLAG epitope)]; and PYC41 [DNA sequence set forth in SEQ ID NO: 60; encoded amino acid sequence set forth in SEQ ID NO: 61 (with FLAG epitope) and 62 (without FLAG epitope)].
Subsequently, the individual plasmid clones were rescued from the yeast and re-transformed to confirm the disruption phenotype; 63% of the primary “hits”, including PYC 19, PYC35, […], PYC38/39 and PYC41, were positive in two assays for recapitulation of the phenotype.

[2] = system: primary cortical neuronal cultures; test: Glutamate excitotoxicity in primary cortical neuronal cultures, neuronal viability by MTS assay; type: cell-based, rat; conditions: for neuronal viability following glutamate excitotoxicity / neuroprotection in the glutamate model: 5 μM extracellular peptide; for neuronal viability following glutamate excitotoxicity: 100 μM glutamate 5 min, MTS 18 h, no insult = 100%
Experimental: Neurons were resuspended in Neurobasal (NB; Invitrogen) containing 2% B27 supplement (B27; Invitrogen). Before seeding, culture vessels comprising either a 96-well plastic plate or 24-well plastic plate with 13 mm glass coverslips (ProSciTech, Australia), were coated with poly-D-lysine (50 μg/mL; 70-150K; Sigma) and incubated overnight at room temperature. […] Neurons were plated to obtain approximately 10,000 viable neurons for each well of a 96-well plate, or 200,000 viable neurons per well of a 24-well plate, on day in vitro (DIV) […]. […] On DIV 4, one third of the culture medium was removed and replaced with fresh NB/2% B27 containing the mitotic inhibitor, cytosine arabinofuranoside (Sigma) at 1 μM concentration. On DIV 8, one half of the culture medium was replaced with NB/2% B27.
(§1) To induce glutamate excitotoxicity in the cortical neuronal cultures (96-well plate format), 50 μl of conditioned media containing 200 μM glutamate was added to culture wells containing 50 μl conditioned media (100 μM final glutamate concentration). Cultures were incubated at 37° C. in a CO2 incubator for 5 minutes, after which time the media was replaced with 100 μl of 50% NB/2% N2 and 50% balance salt solution (NB/N2:BSS).
Untreated and glutamate-treated control samples received media additions with and without glutamate respectively.
(§2) Eighteen hours after glutamate exposure, neuronal cultures were examined by light microscopy for qualitative assessment of neuronal damage. Neuronal viability was quantitatively measured by 3-(4,5,dimethyliazol-2-yl)-5-(3-carboxymethoxy-phenyl)-2-(4-sulfophenyl)-2H-tetrazolium salt (MTS) assay (Promega, Australia). The MTS assay measures the mitochondrial conversion of the tetrazolium salt to a water-soluble brown formazan salt, which is detected spectrophotometrically at 495 nm. MTS absorbance data was converted to reflect proportional cell viability relative to both the untreated and glutamate treated controls. […] All assays were performed with quadruplicate sister neuronal cultures repeated a minimum of four times independently.

[3] = system: primary cortical neuronal cultures; test: Light microscopy assessment of neuronal damage after glutamate exposure; type: cell-based, rat; conditions: for neuronal morphology (cellular rounding, survival) after glutamate exposure: light microscopy, one hour to 18 hours post glutamate exposure
Experimental: Cortical neuronal cultures were established as described by Meloni et al., Neuroscience 108, 17-26, 2001. Briefly, cortical tissue from E18-E19 Sprague-Dawley rats was dissociated in Dulbelcco's Modified Eagle Medium (DMEM; Invitrogen, Australia) supplemented with 1.3 mM L-cysteine, 0.9 mM NaHCO3, 10 units/ml papain (Sigma, USA) and 50 units/ml DNase (Sigma) and washed in cold DMEM/10% (v/v) horse serum. Neurons were resuspended in Neurobasal (NB; Invitrogen) containing 2% B27 supplement (B27; Invitrogen). Before seeding, culture vessels comprising either a 96-well plastic plate or 24-well plastic plate with 13 mm glass coverslips (ProSciTech, Australia), were coated with poly-D-lysine (50 μg/mL; 70-150K; Sigma) and incubated overnight at room temperature. The poly-D-lysine was removed and replaced with NB (containing 2% B27; 4% fetal bovine serum; 1% horse serum; 62.5 μM glutamate; 25 μM 2-mercaptoethanol; and 30 μg/mL streptomycin and 30 μg/mL penicillin). Neurons were plated to obtain approximately 10,000 viable neurons for each well of a 96-well plate, or 200,000 viable neurons per well of a 24-well plate, on day in vitro (DIV) […]. Neuronal cultures were maintained in a CO2 incubator (5% CO2, 95% air balance, 98% humidity) at 37° C. On DIV 4, one third of the culture medium was removed and replaced with fresh NB/2% B27 containing the mitotic inhibitor, cytosine arabinofuranoside (Sigma) at 1 μM concentration. On DIV 8, one half of the culture medium was replaced with NB/2% B27. Cultures were used on DIV 11 or 12, and consisted of >95% neurons.
as §1, §2

[4] = 1 μM extracellular concentration
[5] = 2 μM extracellular concentration

T1 sequence (P05412 259-309 limits assumed): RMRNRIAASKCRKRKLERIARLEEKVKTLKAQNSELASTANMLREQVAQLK
T1 sequence (P05412 187-331 limits assumed): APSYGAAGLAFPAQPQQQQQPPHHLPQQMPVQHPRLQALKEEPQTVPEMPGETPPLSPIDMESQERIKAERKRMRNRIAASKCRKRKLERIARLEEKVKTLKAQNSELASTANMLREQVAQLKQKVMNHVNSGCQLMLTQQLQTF

| Compound | neuronal morphology (cellular rounding, survival) after glutamate exposure [3] | neuroprotection following glutamate excitotoxicity [2, 4] | neuroprotection following glutamate excitotoxicity [2, 5] | neuronal viability following glutamate excitotoxicity [2] | other results |
| --- | --- | --- | --- | --- | --- |
| PYC19: Phylomer clone; encoded amino acid sequence SEQ ID NO: 27 (with FLAG epitope) and 28 (without FLAG epitope) (LINQSYAYPYIY; PYC19L peptide) | – | – | – | – | yeast survival on media for counter-selection against AP-1 complex formation viz. c-Jun dimerization ([1]; initial reverse-two-hybrid screen, clones expressed from pYTB3): allowed yeast survival; recapitulation of the disruption phenotype ([1]; plasmid clones rescued and re-transformed, two assays): positive |
| CC(C)C[C@@H](NC(=O)[C@@H](Cc1ccccc1)NC(=O)[C@H]1CCCN1C(=O)[C@@H](CCC(N)=O)NC(=O)[C@H](NC(=O)[C@H]1CCCN1C(=O)[C@@H](CCCNC(=N)N)NC(=O)[C@@H](CO)NC(=O)[C@@H](CCC(N)=O)NC(=O)[C@@H](CC(=O)O)NC(=O)[C@H](N)[C@H](C)O)C(C)C)C(=O)N[C@H](CC(N)=O)C(=O)N[C@H](CC(C)C)C(=O)N[C@@H](C(=O)N[C@@H](C(=O)N1CCC[C@@H]1C(=O)N[C@H](CCCNC(=N)N)C(=O)N[C@H](CCCCN)C(=O)N1CCC[C@@H]1C(=O)N[C@H](CCCNC(=N)N)C(=O)N1CCC[C@@H]1C(=O)N1CCC[C@@H]1C(=O)N[C@H](CCCNC(=N)N)C(=O)N[C@H](CCCNC(=N)N)C(=O)N[C@H](CCCNC(=N)N)C(=O)N[C@H](CCC(N)=O)C(=O)N[C@H](CCCNC(=N)N)C(=O)N[C@H](CCCNC(=N)N)C(=O)N[C@H](CCCCN)C(=O)N[C@H](CCCCN)C(=O)N[C@H](CCCNC(=N)N)C(=O)NCC(=O)O)[C@H](C)O)[C@H](C)O [JNK1-1D-TAT, reference compound] | did not begin to round and survived glutamate excitotoxicity | – | – | – | neuronal viability following glutamate excitotoxicity ([2]; listed as JNKI-1 D-TAT): 75%; neuronal viability following glutamate excitotoxicity ([2]; listed as JNKI-1D-TAT): 89%; extracellular concentration providing significant neuroprotection ([2]; glutamate excitotoxicity, dose response 0.1-10 μM): ≥ 2 µM; concentrations at which significant neuroprotection is exhibited ([2]; glutamate excitotoxicity, p<0.0077): micromolar concentrations |
| CC[C@@H](C)[C@@H](NC(=O)CNC(=O)[C@@H](CCC(=O)O)NC(=O)[C@@H](CO)NC(=O)[C@@H](CCCNC(=N)N)NC(=O)[C@@H](CCC(=O)O)NC(=O)[C@H](NC(=O)[C@H](N)CCCCN)[C@H](C)CC)C(=O)N[C@H](CO)C(=O)N[C@H](CCC(N)=O)C(=O)N[C@H](CO)C(=O)N[C@H](C)C(=O)N[C@H](CCCNC(=N)N)C(=O)N[C@H](CO)C(=O)N[C@H](CCCNC(=N)N)C(=O)NCC(=O)N[C@H](Cc1ccc(O)cc1)C(=O)N[C@H](CO)C(=O)NCC(=O)N[C@H](CCCNC(=N)N)C(=O)N[C@H](CCCNC(=N)N)C(=O)N[C@H](CCCNC(=N)N)C(=O)N[C@H](CCC(N)=O)C(=O)N[C@H](CCCNC(=N)N)C(=O)N[C@H](CCCNC(=N)N)C(=O)N[C@H](CCCCN)C(=O)N[C@H](CCCCN)C(=O)N[C@H](CCCNC(=N)N)C(=O)NCC(=O)O [PYC35D Scram-TAT, reference compound] (H-[dK][dI][dE][dR][dS][dE]G[dI][dS][dQ][dS][dA][dR][dS][dR]G[dY][dS]G[dR][dR][dR][dQ][dR][dR][dK][dK][dR]G-OH; N-terminus and C-terminus assumed) | displayed cellular rounding | – | – | – | neuroprotection in the glutamate model [2]: failed to provide neuroprotection; neuroprotection in the glutamate model ([2]; listed as PYC35L-Scram-TAT): reduced neuroprotection; neurons that appeared intact and viable ([3]; Sprague-Dawley, rat, 18 hours): 2-5% |
| GRKKRRQRRRGVSINQEHHRLLPL [PYC41L-TAT] | did not begin to round and survived glutamate excitotoxicity | neuroprotective trend | initial significant neuroprotection | 38% | – |
| GRKKRRQRRRGLINQSYAYPYIY [PYC19L-TAT] | did not begin to round and survived glutamate excitotoxicity | neuroprotective trend; also recorded: significant neuroprotection | neuroprotective trend | 32% | – |
